According to patent EP1354870A1, “DIHYD[…]” (CONSEJO SUPERIOR DE INVESTIGACIONES CIENTIFICAS, priority 2000, dated 2002):

Biological target: T1, dihydroceramide desaturase (Rattus norvegicus, UniProt Q5XIF5)
T1 construct: from tissue; host or cells: rat liver microsomes
T1 sequence (Q5XIF5 1-323): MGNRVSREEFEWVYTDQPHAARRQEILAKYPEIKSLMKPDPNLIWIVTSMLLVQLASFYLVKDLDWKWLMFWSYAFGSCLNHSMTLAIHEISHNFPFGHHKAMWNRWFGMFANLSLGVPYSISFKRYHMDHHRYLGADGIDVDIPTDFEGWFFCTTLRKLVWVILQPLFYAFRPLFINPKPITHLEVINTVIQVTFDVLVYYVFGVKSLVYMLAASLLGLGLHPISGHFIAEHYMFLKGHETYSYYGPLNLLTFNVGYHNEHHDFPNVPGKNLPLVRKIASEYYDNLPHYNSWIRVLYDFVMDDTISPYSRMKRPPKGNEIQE
Experiment: Inhibitory activity on dihydroceramide desaturase in rat liver microsomes (GC-MS quantification of the desaturated product)
Format: biochemical
Details: substrate N-octanoyldihydrosphingosine 10 nmoles, NADH, 37°C for 30 minutes, without preincubation, effect dose-dependent
Experimental: The inhibitory activity of the type I compounds that is claimed in this patent was tested on rat liver microsomes, prepared as described in [Michel, C. van Echten-Deckert, G.; Rother, J.; Sandhoff, K.; Wang, E.; Merrill, A. H. J. Biol. Chem. 1997, 272, 22432-22437]. The dihydroceramide desaturase activity was determined according to the procedure described in Michel, C. van Echten-Deckert, G.; Rother, J.; Sandhoff, K.; Wang, E.; Merrill, A. H. J. Biol. Chem. 1997, 272, 22432-22437, with the following modifications: compound la in increasing doses of 0, 0.6, 1.25, 2.5, 5 and 10 nmoles, was solubilized in BSA-ethanol 9:1 (100µl) and to the resulting solution 10 nmoles of substrate dissolved in 10µl of ethanol were added. To this solution was added a total of 0.3 mg of the microsomal suspension containing the desaturase, and 30 µl of a […] solution of NADH in 0.1M phosphate buffer, pH 7.5. The suspension was incubated at 37°C for 30 minutes and the reactions were stopped by adding 0.5 mL of chloroform containing 1 nmol of N-hexanoylsphingosine as an internal standard for quantification. Repeated lipid extractions with chloroform were carried out (2 x 250 µl) and the combined organic extracts were evaporated to dryness under a stream of Nitrogen. The resulting residue was treated with 50 µl of bis-trimethylsilyltrifluoroacetamide at 25°C for 60 minutes. […]

## CCCCCCCCCCCCCC1=C(C(O)C(CO)NC(=O)CCCCCCC)C1 (single isomer, unassigned) [la]
  IC50: 52 nM
